Where only a bound is given, the exact number is not on record here.

This assay has as its target T1, N-terminally GST-tagged human full length recombinant Mps-1 kinase (Homo sapiens, UniProt P33981).
T1 construct: N-terminally GST-tagged human full length recombinant Mps-1 kinase; purchased Invitrogen, Karslruhe, Germany PV4071
T1 sequence (P33981 1-857): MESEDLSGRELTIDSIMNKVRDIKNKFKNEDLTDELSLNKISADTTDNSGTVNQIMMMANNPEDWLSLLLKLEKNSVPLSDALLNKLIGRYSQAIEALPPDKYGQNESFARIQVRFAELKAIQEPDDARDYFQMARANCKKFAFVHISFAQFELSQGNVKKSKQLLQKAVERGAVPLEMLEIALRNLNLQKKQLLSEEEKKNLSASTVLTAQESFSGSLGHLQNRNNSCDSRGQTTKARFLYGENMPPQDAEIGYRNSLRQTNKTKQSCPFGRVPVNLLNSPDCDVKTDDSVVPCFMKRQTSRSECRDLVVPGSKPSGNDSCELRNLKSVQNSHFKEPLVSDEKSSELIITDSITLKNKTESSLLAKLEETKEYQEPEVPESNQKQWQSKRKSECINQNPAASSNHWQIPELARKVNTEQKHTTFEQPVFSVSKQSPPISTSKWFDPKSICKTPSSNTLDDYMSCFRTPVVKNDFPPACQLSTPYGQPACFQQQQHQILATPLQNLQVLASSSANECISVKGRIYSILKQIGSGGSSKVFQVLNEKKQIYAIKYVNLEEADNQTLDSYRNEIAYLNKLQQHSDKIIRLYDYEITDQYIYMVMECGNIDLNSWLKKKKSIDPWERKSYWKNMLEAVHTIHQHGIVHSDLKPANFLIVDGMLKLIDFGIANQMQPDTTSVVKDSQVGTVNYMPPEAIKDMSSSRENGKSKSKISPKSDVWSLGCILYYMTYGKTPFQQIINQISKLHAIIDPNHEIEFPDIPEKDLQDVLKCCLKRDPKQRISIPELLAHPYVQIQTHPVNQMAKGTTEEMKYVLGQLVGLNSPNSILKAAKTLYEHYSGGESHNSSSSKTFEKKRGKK
The assay can be described thus: Mps-1 kinase assay (TR-FRET). It is filed as biochemical. To be noted: Mps1 IC50 [nM], 10 μM ATP, 1 μM peptide substrate, 60 min at 22° C. The method, boiled down:
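Inhibition of Mps-1 (N-terminal GST fusion, full length) toward a biotinylated peptide is read as Eu-to-XLent TR-FRET. Enzyme level, around 1 nM final, follows lot activity.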
Broadly, the IC50 is the concentration at which inhibition is half-maximal. `Cc1cc(-c2cnc3c(NCC4CN(C)CCO4)cc(Sc4ccccc4)nn23)ccc1C(=O)NC1CC1` (racemic) [Example 56, (RS)—N-cyclopropyl-2-methyl-4-[8-{[(4-methylmorpholin-2-yl)methyl]amino}-6-(phenylsulfanyl)imidazo[1,2-b]pyridazin-3-yl]benzamide]: the concentration for half-maximal inhibition (IC50) was less than 1 nM.
Next, `Cc1cc(-c2cnc3c(NCCC(F)(F)F)cc(Oc4ccccc4O)nn23)ccc1C(=O)NC1CC1` [Example 280, N-cyclopropyl-4-{6-(2-hydroxyphenoxy)-8-[(3,3,3-trifluoropropyl)amino]imidazo[1,2-b]pyridazin-3-yl}-2-methylbenzamide]: 0.1 nM; `COc1ccc(Cc2cc(NCCC(F)(F)F)c3ncc(-c4ccc(C(=O)NC5CC5)c(C)c4)n3n2)cc1F` [Example 483, N-cyclopropyl-4-{6-(3-fluoro-4-methoxybenzyl)-8-[(3,3,3-tri-fluoropropyl)amino]imidazo [1,2-b]pyridazin-3-yl}-2-methylbenzamide]: 0.1 nM.
Turning to `Cc1cc(-c2cnc3c(NCC(F)(F)F)cc(Oc4cccc(F)c4)nn23)ccc1C(=O)NC1CC1` [Example 514, N-cyclopropyl-4-{6-(3-fluoro-phenoxy)-8-[(2,2,2-trifluoroethyl)amino]imidazo[1,2-b]pyridazin-3-yl}-2-methylbenzamide], the IC50 amounted to 8 nM.
On to `CCNC(=O)c1ccc(-c2cnc3c(NCCOC)cc(Oc4ccc(F)c(F)c4)nn23)cc1C` [Example 607, 4-{6-(3,4-difluorophenoxy)-8-[(2-methoxyethyl)a-mino]imidazo[1,2-b]pyridazin-3-yl}-N-ethyl-2-methylbenzamide], for which the half-inhibitory concentration (IC50) worked out at 3.7 nM.
Next, `Cc1cc(-c2cnc3c(NCC(C)(C)O)cc(Sc4cnccn4)nn23)ccc1C(=O)NC1CC1` [Example 412, N-cyclopropyl-4-{8-[(2-hydroxy-2-methylpropyl)amino]-6-(pyrazin-2-ylsulfanyl)imidazo[1,2-b]pyridazin-3-yl}-2-methylbenzamide]: 19.2 nM; `COCCNc1cc(NCC(C)(C)O)c2ncc(-c3ccc(C(=O)NC4CC4)c(C)c3)n2n1` [Example 331, N-cyclopropyl-4-{8-[(2-hydroxy-2-methylpropyl)amino]-6-[(2-methoxy-ethyl)amino]imidazo[1,2-b]pyridazin-3-yl}-2-methylbenzamide]: 12.6 nM; `Cc1cc(-c2cnc3c(NCCC(F)(F)F)cc(Nc4cc(F)cc(F)c4)nn23)ccc1C(=O)NC1CC1` [Example 378, N-cyclopropyl-4-{6-[(3,5-difluorophenyl)amino]-8-[(3,3,3-trifluoropropyl)amino]imidazo[1,2-b]pyridazin-3-yl}-2-methylbenzamide]: 0.2 nM.
Next, `COc1ccc(Oc2cc(NCCC(F)(F)F)c3ncc(-c4ccc(C(=O)NC5CC5)c(C)c4)n3n2)cc1F` [Example 475, N-cyclopropyl-4-{6-(3-fluoro-4-methoxy-phenoxy)-8-[(3,3,3-tri-fluoropropyl)amino]imidazo[1,2-b]pyridazin-3-yl}-2-methylbenzamide]: 0.2 nM; `Cc1cc(-c2cnc3c(NCC(O)C(F)(F)F)cc(Cl)nn23)ccc1C(=O)NC1CC1` (racemic) [Example 205, (RS)-4-{6-Chloro-8-[(3,3,3-trifluoro-2-hydroxypropyl)amino]imidazo[1,2-b]pyridazin-3-yl}-N-cyclopropyl-2-methylbenzamide]: 72.7 nM.
To `CC(C)CNc1cc(-c2ccsc2)nn2c(-c3ccc(C(=O)NC4CC4)cc3)cnc12` [Example 122, N-cyclopropyl-4-{8-[(2-methylpropyl)amino]-6-(thiophen-3-yl)imidazo [1,2-b]pyridazin-3-yl} benzamide] belongs 2.9 nM.
With `Cc1cc(-c2cnc3c(NCC(C)(C)O)cc(Oc4cccc(OC(C)C)c4)nn23)ccc1C(=O)NC1CC1` [Example 361, N-cyclopropyl-4-{8-[(2-hydroxy-2-methylpropyl)amino]-6-(3-isopropoxyphenoxy)imidazo[1,2-b]pyridazin-3-yl}-2-methylbenzamide], the IC50 was found to be 0.3 nM.
With `Cc1cc(-c2cnc3c(NCC(C)(C)O)cc(-c4ccoc4)nn23)ccc1C(=O)NC1CC1` [Example 157, N-cyclopropyl-4-{6-(furan-3-yl)-8-[(2-hydroxy-2-methylpropyl)amino]imidazo[1,2-b]pyridazin-3-yl}-2-methylbenzamide], the half-inhibitory concentration (IC50) was 12 nM.
On to `Cc1ccc(F)c(Oc2cc(NCCC(F)(F)F)c3ncc(-c4ccc(C(=O)NC5CC5)c(C)c4)n3n2)c1` [Example 259, N-cyclopropyl-4-{6-(2-fluoro-5-methylphenoxy)-8-[(3,3,3-trifluoropropyl)amino]imidazo[1,2-b]pyridazin-3-yl}-2-methylbenzamide], for which the concentration for half-maximal inhibition (IC50) is 0.3 nM.
With `CNC(=O)c1ccc(-c2cnc3c(NCc4cccs4)cc(Cl)nn23)cc1Cl` [Example 186, 2-Chloro-4-{6-chloro-8-[(thiophen-2-ylmethyl)amino]imidazo[1,2-b]pyridazin-3-yl}-N-methylbenzamide], the 50% inhibitory concentration (IC50) was determined as 338 nM.
For `CCOc1ccc(-c2cc(NCC(C)(C)O)c3ncc(-c4ccc(C(=O)NC5CC5)c(C)c4)n3n2)cn1` [Example 158, N-cyclopropyl-4-{6-(6-ethoxypyridin-3-yl)-8-[(2-hydroxy-2-methylpropyl)amino]imidazo[1,2-b]pyridazin-3-yl}-2-methylbenzamide], the IC50 was 6.4 nM.
`C/C=C(\C)c1cc(NCC(C)(C)O)c2ncc(-c3ccc(C(=O)NC4CC4)cc3OC)n2n1` [Example 72, 4-{6-[(2E)-But-2-en-2-yl]-8-[(2-hydroxy-2-methylpropyl)amino]imidazo[1,2-b]pyridazin-3-yl}-N-cyclopropyl-3-methoxybenzamide]: the IC50 is 44.4 nM.
As for `Cc1cc(-c2cnc3c(NCCCC(C)O)cc(-c4ccccc4CO)nn23)ccc1C(=O)NC1CC1` (racemic) [Example 342, (RS)-N-cyclopropyl-4-{6-[2-(hydroxy-methyl)phenyl]-8-[(4-hydroxy-pentyl)amino]imidazo[1,2-b]pyridazin-3-yl}-2-methylbenzamide], the IC50 was 6.9 nM.
As for `Cc1cc(-c2cnc3c(NCCC(F)(F)F)cc(Oc4ccccc4N)nn23)ccc1C(=O)NC1CC1` [Example 395, 4-{6-(2-aminophenoxy)-8-[(3,3,3-trifluoropropyl)amino]imidazo[1,2-b]pyridazin-3-yl}-N-cyclopropyl-2-methylbenzamide], the IC50 worked out at 0.3 nM.
Regarding `c1cc(-c2cc(NC[C@H]3CCCO3)c3ncc(-c4ccc(-c5cnc(C6CC6)[nH]5)cc4)n3n2)ccn1` [Example 5, 3-[4-(2-Cyclopropyl-1H-imidazol-5-yl)phenyl]-6-(pyridin-4-yl)-N-[(2R)-tetrahydrofuran-2-ylmethyl]imidazo[1,2-b]pyridazin-8-amine], the IC50 turned out to be 13.3 nM.
Regarding `Cc1cc(-c2cnc3c(NCC4CCS(=O)(=O)CC4)cc(Oc4ccc(Cl)cc4)nn23)ccc1C(=O)NC1CC1` [Example 294A, 4-[6-(4-chlorophenoxy)-8-{[(1,1-dioxidotetrahydro-2H-thiopyran-4-yl)methyl]amino}imidazo[1,2-b]pyridazin-3-yl]-N-cyclopropyl-2-methylbenzamide], the half-maximal inhibitory concentration (IC50) came to 0.3 nM.

Source of the values: US9255100B2 (BAYER INTELLECTUAL PROPERTY GMBH, priority 2010, dated 2016).
